Source: patent US20220378706A1, “PHARMACEUTICAL COMPOSITION COMPRISING PDE9 INHIBITOR” (Eisai R&D Management Co., Ltd., priority 2017, published 2022)

Test: Single dose clinical study Parts A and C: urine Compound A pharmacokinetics
Assay type: in vivo, human
Settings: for CL renal: human, po
Procedure: Urine Compound A concentrations were analyzed predose and up to 96 hours postdose.
Plasma, urine and CSF concentrations of Compound A were measured using validated liquid chromatography mass spectrometry/mass spectrometry (LC MS/MS) assay methods. CSF concentrations of cGMP were measured using a validated LC-MS/MS assay method.
The following PK parameters were calculated for Compound A: […]

[1] = Elderly subjects Part C, single oral 100 mg
[2] = healthy adults Part A, single oral 10 mg
[3] = healthy adults Part A, single oral 25 mg
[4] = healthy adults Part A, single oral 50 mg
[5] = healthy adults Part A, single oral 100 mg
[6] = healthy adults Part A, single oral 200 mg
[7] = healthy adults Part A, single oral 400 mg
[8] = healthy adults Part A, single oral 800 mg
[9] = healthy adults Part A, single oral 1200 mg

For COc1ncc(C)c(-c2ccc3c(c2)[nH]c(=O)c2cnn([C@H]4CCOC4)c23)c1C [Compound A, (S)-7-(2-methoxy-3,5-dimethylpyridin-4-yl)-1-(tetrahydrofuran-3-yl)-1H-pyrazolo[4,3-c]quin olin-4(5H)-one], the “Ae(0-96 h) GM” value [1] was 0.228 mg, the “Fe(0-96 h) GM” value [1] was 0.228% and the “Ae(0-96 h) GM” value [2] was 0.0218 mg. For the same compound, the “Fe(0-96 h) GM” value [2] was 0.218%, the “Ae(0-96 h) GM” value [3] was 0.0476 mg and the “Fe(0-96 h) GM” value [3] was 0.190%. The “Ae(0-96 h) GM” value [4] was 0.104 mg, the “Fe(0-96 h) GM” value [4] was 0.208% and the “Ae(0-96 h) GM” value [5] was 0.295 mg. For the same compound, the “Fe(0-96 h) GM” value [5] was 0.295%, the “Ae(0-96 h) GM” value [6] was 0.177 mg and the “Fe(0-96 h) GM” value [6] was 0.0885%. The “Ae(0-96 h) GM” value [7] was 0.615 mg, the “Fe(0-96 h) GM” value [7] was 0.154% and the “Ae(0-96 h) GM” value [8] was 0.762 mg. The “Fe(0-96 h) GM” value [8] was 0.0953%, the “Ae(0-96 h) GM” value [9] was 1.18 mg and the “Fe(0-96 h) GM” value [9] was 0.0979%. For the same compound, the CL renal (10 mg, healthy adults Part A, single oral 10 mg) was 0.228 mL/min, the CL renal (25 mg, healthy adults Part A, single oral 25 mg) was 0.202 mL/min and the CL renal (50 mg, healthy adults Part A, single oral 50 mg) was 0.268 mL/min. For the same compound, the CL renal (100 mg, Elderly subjects Part C, single oral 100 mg) was 0.22 mL/min, the CL renal (100 mg, healthy adults Part A, single oral 100 mg) was 0.37 mL/min and the CL renal (200 mg, healthy adults Part A, single oral 200 mg) was 0.17 mL/min. For the same compound, the CL renal (400 mg, healthy adults Part A, single oral 400 mg) was 0.337 mL/min, the CL renal (800 mg, healthy adults Part A, single oral 800 mg) was 0.212 mL/min and the CL renal (1200 mg, healthy adults Part A, single oral 1200 mg) was 0.287 mL/min.
